The assay deals with T1, human M4 muscarinic acetylcholine receptor (Homo sapiens, UniProt P08173).
T1 construct: expressed in transfected cells; host or cells: CHO-K1
T1 sequence (P08173 1-479): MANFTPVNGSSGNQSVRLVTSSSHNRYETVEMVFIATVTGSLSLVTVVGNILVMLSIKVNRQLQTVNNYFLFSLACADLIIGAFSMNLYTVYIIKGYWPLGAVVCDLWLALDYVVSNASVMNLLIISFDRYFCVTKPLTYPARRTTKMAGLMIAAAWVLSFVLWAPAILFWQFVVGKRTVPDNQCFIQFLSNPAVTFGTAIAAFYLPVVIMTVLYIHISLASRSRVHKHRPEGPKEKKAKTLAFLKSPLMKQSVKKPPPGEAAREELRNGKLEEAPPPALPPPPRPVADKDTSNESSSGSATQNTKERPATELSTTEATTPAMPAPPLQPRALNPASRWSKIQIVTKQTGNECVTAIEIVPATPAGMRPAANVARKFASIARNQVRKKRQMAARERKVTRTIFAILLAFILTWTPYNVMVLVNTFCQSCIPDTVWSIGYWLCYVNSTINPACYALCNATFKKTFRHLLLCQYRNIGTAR
The experiment in a line: human FLIPR-based M4 PAM assay (calcium mobilization, CHO-K1 cells with human M4 receptor and Gαqi5). Type of assay: cell-based. As to conditions: inflection point (IP) of dose response curve, acetylcholine added at 20% of maximum response, read-out: M4 FLIPPR Hu IP. The procedure, abridged: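 CHO-K1 cells stably expressing human M4 and Gαqi5, dye-loaded ~1 h at 37 °C, read on FLIPR Tetra. Test compound added at increasing concentrations 4 min before acetylcholine at an EC20 concentration, sometimes followed by an EC70 addition. Dose-response curves fit to a 4-parameter logistic; result is the curve inflection point.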
In general terms: Calcium flux is commonly read through the fluorescence of an indicator in the cells.

The structures appear in SMILES notation.

In the case of `Cc1nc2cc(-c3nc(C#N)ccc3-c3cnc(CC(C)(C)C(F)(F)F)o3)ccn2n1` [Example 110, 6-(2-methyl-[1,2,4]triazolo [1,5-a]pyridin-7-yl)-5-(2-(3,3,3-trifluoro-2,2-dimethylpropyl)oxazol-5-yl)picolinonitrile], the EC50 was 0.118 µM. With `Cc1nc2cc(-c3nc(C#N)ccc3-c3cnc(CC(C)(C)C(F)(F)F)o3)ccc2n1C` [Example 111, 6-(1,2-dimethyl-1H-benzo[d]imidazol-5-yl)-5-(2-(3,3,3-trifluoro-2,2-dimethylpropyl)oxazol-5-yl)picolinonitrile] the figure was 0.114 µM; with `Cc1nc2cc(-c3nc(C#N)ccc3-c3cnc(CCC(C)(F)F)o3)ccn2n1` [Example 112, 5-(2-(3,3-difluorobutyl)oxazol-5-yl)-6-(2-methyl-[1,2,4]triazolo [1,5-a]pyridin-7-yl)picolinonitrile], 0.182 µM. The value for `Cc1nc2cc(-c3nc(C#N)ccc3-c3cnc(CCC(F)(F)F)o3)ccc2n1C` [Example 113, 6-(1,2-dimethyl-1H-benzo[d]imidazol-5-yl)-5-(2-(3,3,3-trifluoropropyl)oxazol-5-yl)picolinonitrile] was 0.118 µM; that for `Cn1cnc2cc(-c3nc(C#N)ccc3-c3cnc(CC(C)(C)C(F)(F)F)o3)ccc21` [Example 114, 6-(1-methyl-1H-benzo[d]imidazol-5-yl)-5-(2-(3,3,3-trifluoro-2,2-dimethylpropyl)oxazol-5-yl)picolinonitrile] was 0.092 µM; that for `Cn1cnc2cc(-c3ncccc3-c3cnc(CC(C)(C)C(F)(F)F)o3)ccc21` [Example 115, 5-(2-(1-methyl-1H-benzo[d]imidazol-5-yl)pyridin-3-yl)-2-(3,3,3-trifluoro-2,2-dimethylpropyl) oxazole] was 0.128 µM.

For `Cc1cn2ccc(-c3nc(C#N)ccc3-c3cnc(CCC(C)(C)F)o3)cc2n1` [Example 116, 5-(2-(3-fluoro-3-methylbutyl)oxazol-5-yl)-6-(2-methylimidazo [1,2-a]pyridin-7-yl)picolinonitrile], the EC50 is 0.047 µM.

Take `Cc1nc2cc(-c3nc(C#N)ccc3-c3cnc(CCC(C)(C)F)o3)ccc2n1C` [Example 117, 6-(1,2-dimethyl-1H-benzo[d]imidazol-5-yl)-5-(2-(3-fluoro-3-methylbutyl)oxazol-5-yl) picolinonitrile]: the EC50 is 0.06 µM.

The values are drawn from patent US10981902B2 (Merck Sharp & Dohme Corp., priority 2017, dated 2021).
